Test results reported in patent publication US20250017885A1, “TREATMENT OF INCLUSION BODY MYOSITIS WITH PHENYLBUTYRATE AND MONITORING OF TREATMENT” (University of Kansas, priority 2023, published 2025).
“Also recorded” adds a separate entry of the source. Where two headings read alike, the source gives them in different places.

Columns and labels:
[1] = system: mitochondrial membrane potential; assay: MitoTracker biomarker (overall mitochondrial mass / mitochondrial membrane potential) in IBM patients treated with PBA; format: in vivo, human
Excerpt: The mitochondrial tracker used to track treatment of IBM with PBA can include MitoTracker dyes that are cationic fluorophores that accumulate electrophoretically into mitochondria in response to the highly negative mitochondrial membrane potential. […] Thus, mitochondria retain MitoTracker dyes like MitoTracker Orange CMTMRos after loss of their membrane potential. Sec, Kholmukhamedov A, Schwartz J M, Lemasters J J. Isolated mitochondria infusion mitigates ischemia-reperfusion injury of the liver in rats: mitotracker probes and mitochondrial membrane potential. Shock. 2013 June; 39(6):543. doi:10.1097/SHK.0b013e318292300d. PMID: 23680774; PMCID: PMC3759289.
(§1) Safety and tolerability of PBA in IBM patients were studied, with a run-in period of 3 months without medication. Biomarkers were studied. […] We have previously assayed TDP-43 and its derivative, phosphorylated TDP-43 (pTDP-43) in peripheral blood platelets in our laboratory (Dr. Agbas). TDP43 positive cytoplasmic aggregates have been described in ALS motor neurons and IBM skeletal muscle tissue with significant up-regulation of TARDBP (the gene expresses TDP-43 protein) and SQTM1 (Sequestosome-1) gene expression.14 Therefore, we planned to measure blood-derived platelet total TDP-43 and pTDP-43 as surrogate biomarker for skeletal muscle TDP-43 profile of IBM patients.
The trend observed in the boxplots of MitoTracker data warranted further exploration with a post hoc analysis. A generalized linear mixed model was used to estimate mean values of MitoTracker at each timepoint. 10 of 11 subjects had measurements at all 3 timepoints. Time was used as a categorical value and correlation among an individual's repeated measurements was accounted for with a random effect for subject. The fixed effect, month, was not statistically significant (p=0.0724). […] The results from the model are exploratory.
For the secondary outcomes, the measurements at baseline, month-3, and month-7 would be reported using mean and standard deviation (or median and interquartile range for skewed measurements) along with a corresponding 95% confidence interval. These measurements would be visually compared using box plots to detect the presence of a trend over time by drawing a trend line on the means (or median). Due to the small sample size, this comparison would be done visually, and no formal statistical test would be done routinely but it would be considered to further study a trend.

[2] = system: cultured human muscle fibers; conditions: Nogalska et al. 2014, cited from earlier work; for Aβ42 and Aβ42 oligomers / Muscle-fiber vacuolization / γ-secretase activity / Lysosomal dysfunction / lysosomal activity: cultured human muscle fibers with experimentally-impaired autophagy
[3] = system: Annexin, MitoSox, TMRE, TDP-43; assay: Exploratory biomarkers: Annexin, MitoSox, TMRE, TDP-43; format: in vivo, human; conditions: FIGS. 7A-7B, 8A-8B, 9A-9B, 10A-10B
Excerpt: as §1

[4] = system: patients with inclusion body myositis; assay: Safety and tolerability of PBA in IBM patients (adverse event reporting, safety laboratory tests); format: in vivo, human; conditions: for Serious events not related to the study drug / Serious adverse events related to the study drug / Safety and tolerability / Safety laboratory tests (ALT, creatinine, creatine kinase, blood counts): IBM patients; for Serious adverse events related to the study drug: 3 gm twice daily for 3 months; for Safety and tolerability: 3 gm twice daily orally for 3 months; for Safety laboratory tests (ALT, creatinine, creatine kinase, blood counts): two subjects had mildly elevated liver enzymes at baseline
Method: In a study, PBA at a dose of 3 grams (gm) was administered twice daily in patients with inclusion body myositis. In this study, 10 patients received the daily doses of PBA for 3 months after run-up periods of 3 months. […] The study was conducted by monitoring biomarkers and biological indicators in the subjects. One of the biological indicators is mitochondrial membrane potential, and analyzing the biological indicator uses a mitochondrial tracker (e.g., MitoTracker) to monitor mitochondrial membrane potential. […] As such, the biomarkers, including a mitochondrial tracker, allow for monitoring the progress of treatment of IBM in the subject with PBA. Thus, the present invention can use PBA in human subjects to treat inclusion body myositis with a dose of 3 gm twice daily and monitoring biological indicators or other biomarkers to monitor progress of IBM in the subject. Safety and tolerability of PBA in IBM patients were studied, with a run-in period of 3 months without medication. Biomarkers were studied. […] We have previously assayed TDP-43 and its derivative, phosphorylated TDP-43 (pTDP-43) in peripheral blood platelets in our laboratory (Dr. Agbas). TDP43 positive cytoplasmic aggregates have been described in ALS motor neurons and IBM skeletal muscle tissue with significant up-regulation of TARDBP (the gene expresses TDP-43 protein) and SQTM1 (Sequestosome-1) gene expression.14 Therefore, we planned to measure blood-derived platelet total TDP-43 and pTDP-43 as surrogate biomarker for skeletal muscle TDP-43 profile of IBM patients. […] Secondary outcome measures included multiple strength and functional measures: manual muscle testing, timed up and go test (TUG), IBM functional rating scale (IBMFRS), and grip strength. These clinical outcome measures were commonly used in evaluating progression of IBM and in clinical trials of this disease.^18,19,20,21 In addition, safety laboratory tests and electrocardiogram would be monitored regularly. As mentioned above, the biomarkers would be repeated at the end of the treatment period. The PBA was administered orally at 3 gm doses twice a day. […] Mildly elevated liver enzyme reported in two subjects at baseline and before the treatment period. The most common adverse events which were considered related were GI symptoms (n=9). […] The safety lab tests for monitoring purposes include: Liver enzyme (ALT), renal function test (creatinine), muscle enzyme (creatine kinase) and blood counts (including WBC and platelets). For the primary outcome of safety, the frequency of Adverse Events (AEs) and Serious Adverse Events (SAEs) by grade, would be reported. This would be done for each follow-up visit as well as for all visits combined.

[5] = system: patients with inclusion body myositis; assay: Secondary outcome measures: strength and functional measures (manual muscle testing, TUG, IBMFRS, grip strength); format: in vivo, human
Excerpt: Primary outcome measures included adverse event reporting. Secondary outcome measures included multiple strength and functional measures: manual muscle testing, timed up and go test (TUG), IBM functional rating scale (IBMFRS), and grip strength. These clinical outcome measures were commonly used in evaluating progression of IBM and in clinical trials of this disease.^18,19,20,21 In addition, safety laboratory tests and electrocardiogram would be monitored regularly. As mentioned above, the biomarkers would be repeated at the end of the treatment period. For the secondary outcomes, the measurements at baseline, month-3, and month-7 would be reported using mean and standard deviation (or median and interquartile range for skewed measurements) along with a corresponding 95% confidence interval. These measurements would be visually compared using box plots to detect the presence of a trend over time by drawing a trend line on the means (or median). Due to the small sample size, this comparison would be done visually, and no formal statistical test would be done routinely but it would be considered to further study a trend.

[6] = lysosomal activity-inhibited CHMFs
[7] = AE considered possibly or probably related, 3 gm orally twice a day, 3 months
[8] = AE considered unrelated, at baseline before the treatment period
[9] = gastrointestinal AE considered possibly or probably related, 3 gm orally twice a day, 3 months

Compound: phenylbutyrate [PBA]
- MitoTracker median ([1]; at the end of the treatment period, 19299 at the baseline, 28823 at the beginning of the treatment period): 8010
- MitoTracker estimated coefficient (95% CI), Month 6 ([1]; generalized linear mixed model, Month 3 reference, p 0.0385): −21,344 (−41,402, −1,287)
- MitoTracker estimated coefficient (95% CI), On treatment - Off treatment ([1]; generalized linear mixed model, after treatment vs months 0 and 3 combined): 20,780 (3,091, 38,469)
- MitoTracker (mitochondrial mass) change with treatment ([1]; treatment period vs run-in period): statistically significant change in the mitochondria; also recorded: changes with treatment with PBA; also recorded: statistically significant change in MitoTracker (mitochondrial mass); also recorded: dropped at the end of the treatment period; also recorded: statistically significantly different from pre-treatment; also recorded: significant drop with treatment
- Aβ42 and Aβ42 oligomers [2]: decreases Aβ42 and Aβ42 oligomers
- Muscle-fiber vacuolization [2]: decreasing their vacuolization
- γ-secretase activity [2]: decreases γ-secretase activity
- Cathepsins D and B activities [2, 6]: increased cathepsins D and B activities
- NBR1, p62 and LC3-II [2, 6]: decrease of NBR1, p62 and LC3-II
- Change in exploratory biomarkers (Annexin, MitoSox, TMRE, TDP-43) [3]: no meaningful change in most exploratory biomarkers
- Number of occurrences: Drowsiness [4, 7]: 1
- Number of occurrences: Gastrointestinal AEs [4, 7]: 9
- Number of occurrences: Hair Loss [4, 7]: 1
- Number of occurrences: Musculoskeletal Pain [4, 7]: 2
- Number of occurrences: Nasal Congestion [4, 7]: 1
- Number of occurrences: Tremor [4, 7]: 1
- Number of occurrences: Two Itchy Skin Lesions [4, 7]: 1
- Number of subjects: Drowsiness [4, 7]: 1
- Number of subjects: Gastrointestinal AEs [4, 7]: 9
- Number of subjects: Hair Loss [4, 7]: 1
- Number of subjects: Musculoskeletal Pain [4, 7]: 2
- Number of subjects: Nasal Congestion [4, 7]: 1
- Number of subjects: Tremor [4, 7]: 1
- Number of subjects: Two Itchy Skin Lesions [4, 7]: 1
- Number of subjects: Hair Loss ([4]; AE considered possibly or probably related, 3 gm orally twice a day, 3 months, listed as study drug): One subject had hair loss which was considered possibly related
- Number of occurrences: Back Pain ([4]; AE considered unrelated): 1
- Number of occurrences: Chills ([4]; AE considered unrelated): 1
- Number of occurrences: Elevated White Blood Count ([4]; AE considered unrelated): 1
- Number of occurrences: Elevated blood pressure ([4]; AE considered unrelated): 2
- Number of occurrences: Falls ([4]; AE considered unrelated): 9
- Number of occurrences: Headache ([4]; AE considered unrelated): 1
- Number of occurrences: Low blood pressure ([4]; AE considered unrelated): 1
- Number of occurrences: Numbness in the Legs ([4]; AE considered unrelated): 1
- Number of occurrences: Right Bundle Branch Block ([4]; AE considered unrelated): 1
- Number of occurrences: Urinary Urgency ([4]; AE considered unrelated): 2
- Number of subjects: Back Pain ([4]; AE considered unrelated): 1
- Number of subjects: Chills ([4]; AE considered unrelated): 1
- Number of subjects: Elevated White Blood Count ([4]; AE considered unrelated): 1
- Number of subjects: Elevated blood pressure ([4]; AE considered unrelated): 2
- Number of subjects: Falls ([4]; AE considered unrelated): 6
- Number of subjects: Headache ([4]; AE considered unrelated): 1
- Number of subjects: Low blood pressure ([4]; AE considered unrelated): 1
- Number of subjects: Numbness in the Legs ([4]; AE considered unrelated): 1
- Number of subjects: Right Bundle Branch Block ([4]; AE considered unrelated): 1
- Number of subjects: Urinary Urgency ([4]; AE considered unrelated): 2
- Number of occurrences: Elevated liver enzymes [4, 8]: 2
- Number of subjects: Elevated liver enzymes [4, 8]: 2
- Serious events not related to the study drug [4]: the only serious event reported (a fall) was related to the disease itself, not the study drug
- Serious adverse events related to the study drug [4]: no serious adverse events related to the study drug were reported
- Serious adverse events related to the study drug ([4]; listed as study drug): No study drug-related serious events were reported
- Safety and tolerability [4]: safe and well-tolerated
- Safety and tolerability ([4]; listed as Phenylbutyrate): safe and well tolerated
- Safety and tolerability ([4]; listed as study drug): well tolerated
- Serious events not related to the study drug ([4]; listed as study drug): one serious event (a fall that required a hospital visit) that was not related to the study drug
- Safety laboratory tests (ALT, creatinine, creatine kinase, blood counts) [4]: indicates safety for the PBA administration
- Safety laboratory tests (ALT, creatinine, creatine kinase, blood counts) ([4]; listed as study drug): No other significant laboratory changes were noted
- Number of occurrences: Constipation [4, 9]: 1
- Number of occurrences: Heartburn [4, 9]: 4
- Number of occurrences: Nausea [4, 9]: 2
- Number of occurrences: Oral Aphthous [4, 9]: 1
- Number of occurrences: Urgency [4, 9]: 1
- Number of subjects: Constipation [4, 9]: 1
- Number of subjects: Heartburn [4, 9]: 4
- Number of subjects: Nausea [4, 9]: 2
- Number of subjects: Oral Aphthous [4, 9]: 1
- Number of subjects: Urgency [4, 9]: 1
- Number of occurrences: Strep. Throat Infection ([4]; human, in vivo): 1
- Number of subjects: Strep. Throat Infection ([4]; human, in vivo): 1
- IBMFRS change during the study ([5]; 3 months run-in, 3 months treatment): did not seem to change during the study
- IBMFRS median ([5]; at the end of the treatment period, median 23 at baseline, 24 at the beginning of the treatment period): 23
- Strength evaluation of 24 muscles with accumulative total score, change ([5]; in vivo): No meaningful change
- TUG (seconds) over the duration of the treatment, change ([5]; in vivo): No meaningful change
- Change in all clinical and most biological outcome measures ([5]; short duration, small sample size): no meaningful changes in all clinical and most biological outcome measures

Compound: O=C([O-])CCCc1ccccc1.[Na+] [NaPBA, Sodium phenylbutyrate]
- Aβ42 and Aβ42 oligomers [2]: decreased Aβ42 and its oligomers
- Lysosomal dysfunction / lysosomal activity [2]: improved lysosomal activity
- Muscle-fiber vacuolization [2]: virtually prevented muscle-fiber vacuolization
- γ-secretase activity [2]: decreased γ-secretase activity
- Lysosomal dysfunction / lysosomal activity ([2]; listed as NaPB): reverses lysosomal dysfunction
